# Test system: Cas-1 in primary NP cells
# Assay: Intracellular imaging in nucleus pulposus cells
# Format: cell-based, rat
# Conditions: H2O2 2 mM 30, 60, 90 min; FPy1 5 μM 1 h
# Description: With advancing age, the prevalence of degenerative bone and joint disorders (DBJDs), such as intervertebral disc degeneration (IVDD) and osteoarthritis (OA), increases markedly among middle-aged and elderly individuals.[30] Chronic inflammation has been identified as the underlying cause of DBJDs. In particular, inflammasome-mediated pyroptosis has been recognized as a primary contributor to sustained inflammatory responses.[31] Consequently, pyroptosis-associated biomarkers represent promising indicators for the diagnosis and monitoring of DBJDs. IVDD, a chronic degenerative condition closely related to natural aging, has become one of the leading causes of disability worldwide.[32] […] The imaging results indicated a positive correlation between fluorescence intensity and H2O2-stimulation time (Fig. 4b). […] Encouraged by the promising imaging results of FPy1 in NP cells and cell spheroids, we further assessed its capability for imaging pytoptosis in vivo. […] Following intradiscal injection of FPy1, the fluorescence images of the tail modeling site were obtained from the dorsal aspect. […] Histological scoring result corroborated these findings, reflecting the same trends as with fluorescence imaging observed using FPy1 (Fig. S13b). […]
# The cytotoxicity of FPy1 and YPy1 to THP-1 was evaluated by cell counting kit-8 (CCK-8). […]
substance,measurement,value
"–FLTDG– [FPy1, RhoB donor, hNR quencher]",intracellular fluorescence intensity in NP cells,increased with the duration of H2O2 stimulation

# Source: article PMC12598616, “Design and optimization of caspase-1-responsive fluorescent probes for pyroptosis imaging and anti-pyroptosis drug screening” (Chemical Science, 2025)
